Measurements from US7718611B2, “Cyclic nonapeptide amides” (priority 2004, dated 2010).
In brackets after ≈: the same amount, converted by molar mass. Where two headings read alike, the source gives them in different places. Starred links: 1 amine or outer side, 2 acyl side, 3 side chain; linkers in the order of their positions; H or OH if unused. Positions of bridges follow the written chain, without caps; N, C: chain ends. Non-standard residues stand in square brackets, D forms with d. Residues, ends and D or L forms follow the SMILES beside them. Phe(3R-OH) = O=C([C@@H](N[*:1])[C@H](O[*:3])c1ccccc1)[*:2]; Phe(βR-NH) = O=C([C@@H](N[*:1])[C@H](N[*:3])c1ccccc1)[*:2]; X2 = O=C([C@H](Cc1ccc(C(F)(F)F)nc1)N[*:1])[*:2]; Asn(3S-OH) = NC(=O)[C@@H](O)[C@H](N)C(=O)O; Leu(3R-OH) = CC(C)[C@@H](O)[C@H](N)C(=O)O; X1 = Cc1cccc(C[C@H](N[*:1])C(=O)[*:2])n1; dAla(TMS) = C[Si](C)(C)C[C@@H](N)C(=O)O; d(tBuAla) = CC(C)(C)C[C@@H](N)C(=O)O; tBuAla = CC(C)(C)C[C@H](N)C(=O)O; 3Pal = N[C@@H](Cc1cccnc1)C(=O)O; aThr = C[C@H](O)[C@H](N)C(=O)O

Key:
[1] = system: E. faecalis ICB 27159; assay type: cell-based, Entercococcus faecalis
Method: (§1) Determination of the Minimum Inhibitory Concentration (MIC):
(§2) The MIC is determined in the liquid dilution test in accordance with the NCCLS guidelines. Overnight cultures of Staphylococcus aureus 133, Entercococcus faecalis 27159, E. faecium and Streptococcus pneumoniae G9a are incubated with the described test substances in a 1:2 dilution series. The MIC determination is carried out with a cell count of 10^5 microorganisms per ml in Isosensitest medium (Difco, Irvine/USA), with the exception of S. pneumoniae which is tested in BHI broth (Difco, Irvine/USA) with 10% bovine serum at a cell count of 10^6 microorganisms per ml. The cultures are incubated at 37° C. for 18-24 hours, S. pneumoniae in the presence of 10% CO2.
(§3) The lowest substance concentration in each case at which visible bacterial growth […] is defined as the MIC. The MIC values are reported in μg/ml.

[2] = system: Staphylococcus aureus 133; assay type: cell-based
Method: as §1, §2, §3

[3] = system: Streptococcus pneumoniae G9a; assay type: cell-based
Method: as §1, §2, §3

[4] = system: E. faecium L4001; assay type: cell-based
Method: as §1, §2, §3

[5] = Isosensitest medium, 10^5 microorganisms per ml, 37° C., 18-24 hours
[6] = BHI broth with 10% bovine serum, 10^6 microorganisms per ml, 37° C., 18-24 hours, 10% CO2

Structure (SMILES): CC[C@H](C)[C@@H]1NC(=O)[C@@H](CCCNC(=N)N)NC(=O)[C@H](CC(C)C)NC(=O)[C@H]([C@H](O)C(C)C)NC(=O)[C@@H](NC(=O)[C@H](CC(C)(C)C)NC(=O)[C@H](N)CC(C)(C)C)[C@@H](c2ccccc2)NC(=O)[C@H](CO)NC(=O)[C@H]([C@H](O)C(N)=O)NC(=O)CNC(=O)[C@H]([C@H](C)O)NC1=O [Example 1, [3-tert-Butyl-D-alanyl]-[3-tert-butyl-L-alanyl]-[(3R)-3-amino-L-phenylalanyl)]-[(3R)-3-hydroxy-L-leucyl]-L-leucyl-D-arginyl-L-isoleucyl-L-allothreonyl-glycyl-[(3S)-3-hydroxy-L-asparaginyl]-L-serine C^1.11—N^3.3-lactam bistrifluoroacetate] (H-[d(tBuAla)][tBuAla][Phe(βR-NH)][Leu(3R-OH)]L[dR]I[aThr]G[Asn(3S-OH)]S; lactam 3-C)
- MIC E. faecalis ICB 27159 [1, 5]: 0.25 µg/mL (≈ 0.192 µM)
- MIC S. aureus 133 [2, 5]: 0.5 µg/mL (≈ 0.384 µM)
- MIC S. pneumoniae G9a [3, 6]: 0.063 µg/mL (≈ 0.0483 µM)
- MIC E. faecium L4001 [4, 5]: 0.25 µg/mL (≈ 0.192 µM)

Structure (SMILES): CC[C@H](C)[C@@H]1NC(=O)[C@@H](CCCNC(=N)N)NC(=O)[C@H](CC(C)C)NC(=O)[C@H]([C@H](O)C(C)C)NC(=O)[C@@H](NC(=O)[C@H](CC(C)C)NC(=O)[C@H](N)CC(C)C)[C@@H](c2ccccc2)OC(=O)[C@H](CO)NC(=O)[C@H]([C@H](O)C(N)=O)NC(=O)CNC(=O)[C@H]([C@H](C)O)NC1=O [Example 1A, reference compound] (H-[dL]L[Phe(3R-OH)][Leu(3R-OH)]L[dR]I[aThr]G[Asn(3S-OH)]S; ester 3-C)
- MIC E. faecalis ICB 27159 ([1]; ICB 27159): 0.5 µg/mL (≈ 0.392 µM)
- MIC S. aureus 133 [2]; 133: 0.5 µg/mL (≈ 0.392 µM)
- MIC S. pneumoniae G9a ([3]; G9a): 0.063 µg/mL (≈ 0.0494 µM)
- MIC E. faecium L4001 ([4]; L4001): 0.5 µg/mL (≈ 0.392 µM)

Structure (SMILES): CC[C@H](C)[C@@H]1NC(=O)[C@@H](CCCNC(=N)N)NC(=O)[C@H](CC(C)C)NC(=O)[C@H]([C@H](O)C(C)C)NC(=O)[C@@H](NC(=O)[C@H](Cc2cccnc2)NC(=O)[C@H](N)C[Si](C)(C)C)[C@@H](c2ccccc2)NC(=O)[C@H](CO)NC(=O)[C@H]([C@H](O)C(N)=O)NC(=O)CNC(=O)[C@H]([C@H](C)O)NC1=O.O=C(O)C(F)(F)F.O=C(O)C(F)(F)F.O=C(O)C(F)(F)F [Example 3] (H-[dAla(TMS)][3Pal][Phe(βR-NH)][Leu(3R-OH)]L[dR]I[aThr]G[Asn(3S-OH)]S; lactam 3-C)
- MIC E. faecalis ICB 27159 [1, 5]: 2 µg/mL
- MIC S. aureus 133 [2, 5]: 0.125 µg/mL
- MIC S. pneumoniae G9a [3, 6]: 0.25 µg/mL

Structure (SMILES): CC[C@H](C)[C@@H]1NC(=O)[C@@H](CCCNC(=N)N)NC(=O)[C@H](CC(C)C)NC(=O)[C@H]([C@H](O)C(C)C)NC(=O)[C@@H](NC(=O)[C@H](Cc2cccc(C)n2)NC(=O)[C@H](N)CC(C)(C)C)[C@@H](c2ccccc2)NC(=O)[C@H](CO)NC(=O)[C@H]([C@H](O)C(N)=O)NC(=O)CNC(=O)[C@H]([C@H](C)O)NC1=O.O=C(O)C(F)(F)F.O=C(O)C(F)(F)F.O=C(O)C(F)(F)F [Example 6] (H-[d(tBuAla)][X1][Phe(βR-NH)][Leu(3R-OH)]L[dR]I[aThr]G[Asn(3S-OH)]S; lactam 3-C)
- MIC E. faecalis ICB 27159 ([1]; ICB 27159): 0.5 µg/mL
- MIC S. aureus 133 [2]; 133: 0.25 µg/mL
- MIC S. pneumoniae G9a ([3]; G9a): 0.25 µg/mL

Structure (SMILES): CC[C@H](C)[C@@H]1NC(=O)[C@@H](CCCNC(=N)N)NC(=O)[C@H](CC(C)C)NC(=O)[C@H]([C@H](O)C(C)C)NC(=O)[C@@H](NC(=O)[C@H](Cc2ccc(C(F)(F)F)nc2)NC(=O)[C@H](N)CC(C)(C)C)[C@@H](c2ccccc2)NC(=O)[C@H](CO)NC(=O)[C@H]([C@H](O)C(N)=O)NC(=O)CNC(=O)[C@H]([C@H](C)O)NC1=O.O=C(O)C(F)(F)F.O=C(O)C(F)(F)F [Example 7] (H-[d(tBuAla)][X2][Phe(βR-NH)][Leu(3R-OH)]L[dR]I[aThr]G[Asn(3S-OH)]S; lactam 3-C)
- MIC E. faecalis ICB 27159 ([1]; ICB 27159): 0.25 µg/mL
- MIC S. aureus 133 [2]; 133: 0.125 µg/mL
- MIC S. pneumoniae G9a ([3]; G9a): 0.125 µg/mL

Structure (SMILES): CC[C@H](C)[C@@H]1NC(=O)[C@@H](CCCNC(=N)N)NC(=O)[C@H](CC(C)C)NC(=O)[C@H]([C@H](O)C(C)C)NC(=O)[C@@H](NC(=O)[C@H](CC(C)(C)C)NC(=O)[C@H](N)CC(C)C)[C@@H](c2ccccc2)NC(=O)[C@H](CO)NC(=O)[C@H]([C@H](O)C(N)=O)NC(=O)CNC(=O)[C@H]([C@H](C)O)NC1=O.O=C(O)C(F)(F)F.O=C(O)C(F)(F)F [Example 9] (H-[dL][tBuAla][Phe(βR-NH)][Leu(3R-OH)]L[dR]I[aThr]G[Asn(3S-OH)]S; lactam 3-C)
- MIC E. faecalis ICB 27159 ([1]; ICB 27159): 0.5 µg/mL
- MIC S. aureus 133 [2]; 133: 0.25 µg/mL
- MIC S. pneumoniae G9a ([3]; G9a): 0.125 µg/mL
